Legend:
Type in all cases: in vivo
Avena fatua (AVEFA) [1] = test: B1 pre-emergence herbicidal activity; set-up: key: 5=total damage to plant; 0=no damage to plant; conditions: Test 1b, rate 1000 g/ha, evaluated after 13 days, score 0-5 (5=total damage, 0=no damage)
Procedure: (§1) Seeds of a variety of test species were sown in standard soil in pots: Triticum aestivium (TRZAW), Avena fatua (AVEFA), Alopecurus myosuroides (ALOMY), Echinochloa crus-galli (ECHCG), Lolium perenne (LOLPE), Zea mays (ZEAMX), Abutilon theophrasti (ABUTH), Amaranthus retroflexus (AMARE) and Setaria faberi (SETFA). After cultivation for one day (pre-emergence) under controlled conditions in a glasshouse (at 24/16° C., day/night; 14 hours light; 65% humidity), the plants were sprayed with an aqueous spray solution derived from the formulation of the technical active ingredient in acetone/water (50:50) solution containing 0.5% Tween 20 (polyoxyethelyene sorbitan monolaurate, CAS RN 9005-64-5). The test plants were then grown in a glasshouse under controlled conditions (at 24/16° C., day/night; 14 hours light; 65% humidity) and watered twice daily. After 13 days, the test was evaluated (5=total damage to plant; 0=no damage to plant).

[2] = system: Alopecurus myosuroides (ALOMY); test: B1 pre-emergence herbicidal activity; set-up: key: 5=total damage to plant; 0=no damage to plant; conditions: Test 1b, rate 1000 g/ha, evaluated after 13 days, score 0-5 (5=total damage, 0=no damage)
Procedure: as §1

[3] = system: Triticum aestivium (TRZAW); test: B1 pre-emergence herbicidal activity; set-up: key: 5=total damage to plant; 0=no damage to plant; conditions: Test 1b, rate 1000 g/ha, evaluated after 13 days, score 0-5 (5=total damage, 0=no damage)
Procedure: as §1

Lolium perenne (LOLPE) [4] = test: B1 pre-emergence herbicidal activity; set-up: key: 5=total damage to plant; 0=no damage to plant; conditions: Test 1b, rate 1000 g/ha, evaluated after 13 days, score 0-5 (5=total damage, 0=no damage)
Procedure: as §1

Avena fatua (AVEFA) [5] = test: B2 post-emergence herbicidal activity; set-up: key: 5=total damage to plant; 0=no damage to plant; conditions: Test 2b, rate 1000 g/ha, evaluated after 13 days, score 0-5 (5=total damage, 0=no damage)
Procedure: (§2) Seeds of a variety of test species were sown in standard soil in pots: Triticum aestivium (TRZAW), Avena fatua (AVEFA), Alopecurus myosuroides (ALOMY), Echinochloa crus-galli (ECHCG), Lolium perenne (LOLPE), Zea mays (ZEAMX), Abutilon theophrasti (ABUTH), Amaranthus retroflexus (AMARE) and Setaria faberi (SETFA). After 8 days cultivation (post-emergence) under controlled conditions in a glasshouse (at 24/16° C., day/night; 14 hours light; 65% humidity), the plants were sprayed with an aqueous spray solution derived from the formulation of the technical active ingredient in acetone/water (50:50) solution containing 0.5% Tween 20 (polyoxyethelyene sorbitan monolaurate, CAS RN 9005-64-5). The test plants were then grown in a glasshouse under controlled conditions (at 24/16° C., day/night; 14 hours light; 65% humidity) and watered twice daily. After 13 days, the test was evaluated (5=total damage to plant; 0=no damage to plant).

[6] = system: Alopecurus myosuroides (ALOMY); test: B2 post-emergence herbicidal activity; set-up: key: 5=total damage to plant; 0=no damage to plant; conditions: Test 2b, rate 1000 g/ha, evaluated after 13 days, score 0-5 (5=total damage, 0=no damage)
Procedure: as §2

[7] = system: Triticum aestivium (TRZAW); test: B2 post-emergence herbicidal activity; set-up: key: 5=total damage to plant; 0=no damage to plant; conditions: Test 2b, rate 1000 g/ha, evaluated after 13 days, score 0-5 (5=total damage, 0=no damage)
Procedure: as §2

Lolium perenne (LOLPE) [8] = test: B2 post-emergence herbicidal activity; set-up: key: 5=total damage to plant; 0=no damage to plant; conditions: Test 2b, rate 1000 g/ha, evaluated after 13 days, score 0-5 (5=total damage, 0=no damage)
Procedure: as §2

[9] = system: Echinochloa crus-galli (ECHCG); test: B2 post-emergence herbicidal activity; set-up: key: 5=total damage to plant; 0=no damage to plant; conditions: Test 2b, rate 1000 g/ha, evaluated after 13 days, score 0-5 (5=total damage, 0=no damage)
Procedure: as §2

Setaria faberi (SETFA) [10] = test: B2 post-emergence herbicidal activity; set-up: key: 5=total damage to plant; 0=no damage to plant; conditions: Test 2b, rate 1000 g/ha, evaluated after 13 days, score 0-5 (5=total damage, 0=no damage)
Procedure: as §2

[11] = system: Echinochloa crus-galli (ECHCG); test: B1 pre-emergence herbicidal activity; conditions: Test 1b, rate 1000 g/ha, evaluated after 13 days, score 0-5 (5=total damage, 0=no damage)
Procedure: as §1

Setaria faberi (SETFA) [12] = test: B1 pre-emergence herbicidal activity; set-up: key to Pre-emergence herbicidal activity, SETFA: 5=total damage to plant; 0=no damage to plant; conditions: Test 1b, rate 1000 g/ha, evaluated after 13 days, score 0-5 (5=total damage, 0=no damage)
Procedure: as §1

| Structure (SMILES) | Pre-emergence herbicidal activity, AVEFA (Avena fatua (AVEFA) [1]) | Pre-emergence herbicidal activity, ALOMY [2] | Pre-emergence herbicidal activity, TRAZW [3] | Pre-emergence herbicidal activity, LOLPE (Lolium perenne (LOLPE) [4]) | Control of weed species after post-emergence application, AVEFA (Avena fatua (AVEFA) [5]) | Control of weed species after post-emergence application, ALOMY [6] | Control of weed species after post-emergence application, TRAZW [7] | Control of weed species after post-emergence application, LOLPE (Lolium perenne (LOLPE) [8]) | Control of weed species after post-emergence application, ECHCG [9] | Control of weed species after post-emergence application, SETFA (Setaria faberi (SETFA) [10]) | Pre-emergence herbicidal activity, ECHCG [11] | Pre-emergence herbicidal activity, SETFA (Setaria faberi (SETFA) [12]) |
| --- | --- | --- | --- | --- | --- | --- | --- | --- | --- | --- | --- | --- |
| CN1CCN(c2cnc(-c3cncc(F)c3)nc2C(F)(F)F)C1=O [Compound E9, 1-[2-(5-fluoro-3-pyridyl)-4-(trifluoromethyl)pyrimidin-5-yl]-3-methyl-imidazolidin-2-one] | 1 | 0 | 0 | 1 | 2 | 0 | 1 | 1 | 4 | 3 | 1 | 2 |
| CCC(C)OC(=O)Nc1cnc(-c2cncc(F)c2)nc1C(F)(F)F (centres unmarked) [Compound E18] | 1 | 0 | 1 | 0 | 1 | 0 | 0 | 1 | 4 | 5 | 2 | 5 |
| CC(C)(C)OC(=O)Nc1cnc(-c2cncc(C#N)c2)nc1C(F)(F)F [Compound E12, tert-butyl N-[2-(5-cyano-3-pyridyl)-4-(trifluoromethyl)pyrimidin-5-yl]carbamate] | 0 | 0 | 0 | 0 | 2 | 0 | 0 | 1 | 2 | 5 | 3 | 4 |
| CC(C)OC(=O)Nc1cnc(-c2cncc(F)c2)nc1C(F)(F)F [Compound E14, isopropyl N-[2-(5-fluoro-3-pyridyl)-4-(trifluoromethyl)pyrimidin-5-yl]carbamate] | 1 | 0 | 0 | 0 | 3 | 0 | 1 | 3 | 4 | 5 | 3 | 5 |
| CN(C(=O)OC(C)(C)C)c1cnc(-c2cncc(F)c2)nc1C(F)(F)F [Compound E5] | 3 | 0 | 0 | 1 | 4 | 0 | 0 | 2 | 4 | 5 | 3 | 5 |
| CC(C)(C)OC(=O)Nc1cnc(-c2cncnc2)nc1C(F)(F)F [Compound E11] | 2 | 1 | 0 | 1 | 3 | 0 | 1 | 2 | 4 | 4 | 3 | 4 |
| O=C(Nc1cnc(-c2cncc(F)c2)nc1C(F)(F)F)N1CCOCC1 [Compound E8, N-[2-(5-fluoro-3-pyridyl)-4-(trifluoromethyl)pyrimidin-5-yl]morpholine-4-carboxamide] | 2 | 0 | 0 | 1 | 3 | 1 | 1 | 3 | 4 | 5 | 3 | 4 |
| Cc1nc(-c2cncnc2)ncc1N(C)C(=O)OC(C)(C)C [Compound E3] | 4 | 1 | 0 | 1 | 4 | 2 | 1 | 3 | 4 | 5 | 4 | 4 |
| CCCOC(=O)Nc1cnc(-c2cncc(F)c2)nc1C(F)(F)F [Compound E10] | 2 | 0 | 0 | 1 | 3 | 0 | 1 | 1 | 4 | 5 | 4 |  |
